The target of this experiment is PI3Kα (Homo sapiens, UniProt P42336, H1047R). Description: ADP-Glo IC50 assay. The settings on record: class symbols; key not given. It counts as biochemical.
Sequence of PI3Kα (P42336 whole entry H1047R): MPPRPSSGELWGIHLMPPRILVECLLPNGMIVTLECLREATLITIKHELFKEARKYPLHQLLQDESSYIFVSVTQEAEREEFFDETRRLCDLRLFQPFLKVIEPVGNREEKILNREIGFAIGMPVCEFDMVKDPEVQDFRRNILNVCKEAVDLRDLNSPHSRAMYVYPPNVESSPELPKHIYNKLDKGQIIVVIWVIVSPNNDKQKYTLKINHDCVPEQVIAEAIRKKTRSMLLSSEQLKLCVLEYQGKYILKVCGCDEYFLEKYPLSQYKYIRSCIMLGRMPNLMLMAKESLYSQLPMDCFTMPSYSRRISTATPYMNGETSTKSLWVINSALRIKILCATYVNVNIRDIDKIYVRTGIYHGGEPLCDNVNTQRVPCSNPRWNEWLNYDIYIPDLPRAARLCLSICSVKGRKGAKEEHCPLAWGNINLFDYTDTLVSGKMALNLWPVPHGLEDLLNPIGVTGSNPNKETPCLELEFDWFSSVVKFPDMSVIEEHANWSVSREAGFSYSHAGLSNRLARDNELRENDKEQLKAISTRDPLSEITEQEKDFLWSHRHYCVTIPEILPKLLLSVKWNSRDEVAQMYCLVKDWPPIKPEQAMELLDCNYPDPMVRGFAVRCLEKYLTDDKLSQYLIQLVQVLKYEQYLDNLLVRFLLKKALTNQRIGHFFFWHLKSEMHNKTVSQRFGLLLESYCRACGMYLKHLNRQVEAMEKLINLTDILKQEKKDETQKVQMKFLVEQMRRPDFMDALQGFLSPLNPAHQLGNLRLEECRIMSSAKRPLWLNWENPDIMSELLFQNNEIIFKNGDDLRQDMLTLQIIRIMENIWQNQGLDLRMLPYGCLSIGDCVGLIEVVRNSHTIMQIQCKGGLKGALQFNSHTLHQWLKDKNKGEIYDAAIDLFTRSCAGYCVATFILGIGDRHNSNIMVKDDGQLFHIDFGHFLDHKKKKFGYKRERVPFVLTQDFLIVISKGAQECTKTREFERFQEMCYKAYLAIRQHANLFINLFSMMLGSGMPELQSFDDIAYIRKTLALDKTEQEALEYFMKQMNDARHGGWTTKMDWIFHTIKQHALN
Sequence of PI3Kα (P27986 whole entry partner): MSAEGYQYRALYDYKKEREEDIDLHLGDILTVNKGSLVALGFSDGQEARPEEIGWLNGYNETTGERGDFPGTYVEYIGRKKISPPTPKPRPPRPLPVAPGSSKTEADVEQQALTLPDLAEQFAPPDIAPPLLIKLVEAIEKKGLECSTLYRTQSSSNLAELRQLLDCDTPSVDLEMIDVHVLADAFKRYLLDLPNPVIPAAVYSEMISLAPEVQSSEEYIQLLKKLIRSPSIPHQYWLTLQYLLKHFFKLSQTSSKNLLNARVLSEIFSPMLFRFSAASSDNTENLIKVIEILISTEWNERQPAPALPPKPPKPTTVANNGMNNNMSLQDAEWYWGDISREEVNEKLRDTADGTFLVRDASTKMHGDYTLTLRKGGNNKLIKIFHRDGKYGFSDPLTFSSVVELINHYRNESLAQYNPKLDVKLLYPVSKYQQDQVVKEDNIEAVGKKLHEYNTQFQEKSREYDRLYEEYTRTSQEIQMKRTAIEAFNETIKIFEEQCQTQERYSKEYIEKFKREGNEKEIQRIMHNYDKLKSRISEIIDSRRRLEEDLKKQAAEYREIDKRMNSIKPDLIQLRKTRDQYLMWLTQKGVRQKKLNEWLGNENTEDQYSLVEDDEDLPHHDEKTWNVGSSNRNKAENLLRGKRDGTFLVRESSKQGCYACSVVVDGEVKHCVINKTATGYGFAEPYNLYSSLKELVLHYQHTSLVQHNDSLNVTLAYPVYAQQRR

Usually IC50 stands for the point on the concentration scale where inhibition reaches its midpoint. As for `Cc1ncsc1-c1ccc([C@H](C)NC(=O)[C@@H]2C[C@@H](O)CN2C(=O)[C@@H](NC(=O)CCCCCCCCCNC(=O)c2cc(NC(=O)c3cc(F)cc(C(F)(F)F)c3)c3c(c2)C(=O)N[C@@H]3c2cc(F)ccc2Cl)C(C)(C)C)cc1` [Example I-81], the half-inhibitory concentration (IC50) was in the range of 100 to 500 nM.

Consider `O=C(O)CCCCCCCCCNC(=O)c1cc(NC(=O)c2cc(F)cc(C(F)(F)F)c2)c2c(c1)C(=O)N[C@@H]2c1cc(F)ccc1Cl` [Example I-76], for which the IC50 was < 100 nM.

`Cc1ccccc1Nc1ncc(C(=O)NCCOCCOCCOCCOCCC(=O)NCc2ccc3c(c2)CN(C2CCC(=O)NC2=O)C3=O)cc1NC(=O)c1csc2ccccc12` (stereo not drawn) [Example I-47] came in with an IC50 of 1000 to 10000 nM.

The compound `Cc1ccccc1Nc1ncc(C(=O)NCCOCCOCCOCCOCCOCCOCCC(=O)N[C@H](C(=O)N2C[C@H](O)C[C@H]2C(=O)N[C@@H](C)c2ccc(-c3scnc3C)cc2)C(C)(C)C)cc1NC(=O)c1csc2ccccc12` [Example I-33] registered an IC50 of 1000 to 10000 nM.

Regarding `O=C1CCC(N2Cc3cc(C(=O)NCCCCCCCCCNC(=O)c4cc(NC(=O)c5csc6ccccc56)c5c(c4)C(=O)NC5c4cc(F)ccc4Cl)ccc3C2=O)C(=O)N1` (stereo not drawn) [Example I-159], the IC50 was < 100 nM.

Consider `O=C1CCC(N2C(=O)c3ccc(NCCCCNC(=O)c4cc(NC(=O)c5cc(F)cc(C(F)(F)F)c5)c5c(c4)C(=O)N[C@H]5c4cc(F)ccc4Cl)cc3C2=O)C(=O)N1` (stereo partly drawn) [Example I-100], for which the IC50 was < 100 nM.

For `Cc1cc([C@@H](C)Nc2ccccc2)c2oc(N3CCN(C(=O)CCOCCOCCNC(=O)c4cnc(Nc5ccccc5C)c(NC(=O)c5csc6ccccc56)c4)CC3)cc(=O)c2c1` [Example I-111], the IC50 is < 100 nM.

Turning to `Cc1cc([C@@H](C)Nc2ccccc2C(=O)O)c2oc(N3CCN(C(=O)CCNc4cccc5c4C(=O)N(C4CCC(=O)NC4=O)C5=O)CC3)cc(=O)c2c1` (stereo partly drawn) [Example I-135], the IC50 is 500 to 1000 nM.

Turning to `O=C1CCC(N2Cc3cc(C(=O)NCCCCCCCCCNC(=O)c4cc(NC(=O)c5nsc6ccccc56)c5n4CC(=O)N[C@@H]5c4cc(F)ccc4Cl)ccc3C2=O)C(=O)N1` (stereo partly drawn) [Example I-106], the IC50 was < 100 nM.

The compound `O=C1CCC(N2Cc3cc(C(=O)NCCCCCCCCCNC(=O)c4cc(NC(=O)c5cccc(C(F)(F)F)c5)c5c(c4)C(=O)N[C@@H]5c4cc(F)ccc4Cl)ccc3C2=O)C(=O)N1` (stereo partly drawn) [Example I-155] showed an IC50 of 1000 to 10000 nM.

`O=C1CCC(N2Cc3cc(C(=O)NCCOCCOCCOCCOCCOCCOCCOCCOCCOCCOCCOCCOCCNC(=O)c4cc(NC(=O)c5cc(F)cc(C(F)(F)F)c5)c5c(c4)C(=O)N[C@@H]5c4cc(F)ccc4Cl)ccc3C2=O)C(=O)N1` (stereo partly drawn) [Example I-153] gave an IC50 of 1000 to 10000 nM.

Take `O=C1CCC(N2C(=O)c3ccc(NCCCCCCCNC(=O)c4cc(NC(=O)c5cc(F)cc(C(F)(F)F)c5)c5c(c4)C(=O)N[C@@H]5c4cc(F)ccc4Cl)cc3C2=O)C(=O)N1` (stereo partly drawn) [Example I-89]: the IC50 fell in the range of 500 to 1000 nM.

Compound `Cc1ccccc1Nc1ncc(C(=O)NCCc2ccc(Nc3ccc4c(c3)C(=O)N(C3CCC(=O)NC3=O)C4=O)cc2)cc1NC(=O)c1csc2ccccc12` (stereo not drawn) [Example I-64] yielded an IC50 of 100 to 500 nM.

Regarding `O=C1CCC(N2C(=O)c3ccc(NCCCCCNC(=O)c4cc(NC(=O)c5cc(F)cc(C(F)(F)F)c5)c5c(c4)C(=O)N[C@@H]5c4cc(F)ccc4Cl)cc3C2=O)C(=O)N1` (stereo partly drawn) [Example I-75], the IC50 was 500 to 1000 nM.

`O=C1CCC(N2C(=O)c3ccc(NCCCNC(=O)c4cc(NC(=O)c5cc(F)cc(C(F)(F)F)c5)c5c(c4)C(=O)N[C@@H]5c4cc(F)ccc4Cl)cc3C2=O)C(=O)N1` (stereo partly drawn) [Example I-96]: the IC50 lay in the range of 100 to 500 nM.

For `O=C1CCC(N2C(=O)c3ccc(NCCOCCOCCOCCOCCOCCOCCOCCOCCOCCOCCOCCOCCNC(=O)c4cc(NC(=O)c5cc(F)cc(C(F)(F)F)c5)c5c(c4)C(=O)N[C@H]5c4cc(F)ccc4Cl)cc3C2=O)C(=O)N1` (stereo partly drawn) [Example I-156], the IC50 is < 100 nM.

The compound `Cc1ncsc1-c1ccc([C@H](C)NC(=O)[C@@H]2C[C@@H](O)CN2C(=O)[C@@H](NC(=O)CCCCCCCCCNC(=O)c2cc(NC(=O)c3nsc4ccccc34)c3n2CC(=O)N[C@H]3c2cc(F)ccc2Cl)C(C)(C)C)cc1` [Example I-113] had an IC50 of 100 to 500 nM.

`O=C1CCC(N2C(=O)c3ccc(NCCCCNC(=O)c4cnc(Nc5cc(F)ccc5Cl)c(NC(=O)c5csc6ccccc56)c4)cc3C2=O)C(=O)N1` (stereo not drawn) [Example I-97]: the IC50 was 100 to 500 nM.

The compound `Cc1ccccc1Nc1ncc(C(=O)NCCCCCCC(=O)NCc2ccc3c(c2)CN(C2CCC(=O)NC2=O)C3=O)cc1NC(=O)c1csc2ccccc12` (stereo not drawn) [Example I-19] gave an IC50 of 100 to 500 nM.

In turn, `Cc1cc(Br)c2oc(N3CCN(C(=O)CCOCCOCCNC(=O)c4cnc(Nc5ccccc5C)c(NC(=O)c5csc6ccccc56)c4)CC3)cc(=O)c2c1` [Example I-91] showed an IC50 of 1000 to 10000 nM.

For `Cc1cc([C@H](C)Nc2ccccc2C(=O)O)c2oc(N3CCN(C(=O)CCCCCCCNc4cccc5c4C(=O)N(C4CCC(=O)NC4=O)C5=O)CC3)cc(=O)c2c1` (stereo partly drawn) [Example I-136], the IC50 lay within 1000 to 10000 nM.

Turning to `O=C1CCC(N2C(=O)c3ccc(NCCCNC(=O)c4cc(NC(=O)c5cc(F)cc(C(F)(F)F)c5)c5c(c4)C(=O)N[C@H]5c4cc(F)ccc4Cl)cc3C2=O)C(=O)N1` (stereo partly drawn) [Example I-98], the IC50 was < 100 nM.

As for `Cc1ccccc1Nc1ncc(C(=O)NCCCNc2cccc3c2C(=O)N(C2CCC(=O)NC2=O)C3=O)cc1NC(=O)c1csc2ccccc12` (stereo not drawn) [Example I-51], the IC50 fell in the range of 100 to 500 nM.

Take `COC(=O)CCCCCCCCCNC(=O)c1cnc(Nc2ccccc2C)c(NC(=O)c2csc3ccccc23)c1` [Example I-27]: the IC50 was 500 to 1000 nM.

On to `Cc1cc(Br)c2oc(N3CCN(C(=O)CCCCCNC(=O)c4cnc(Nc5ccccc5C)c(NC(=O)c5csc6ccccc56)c4)CC3)cc(=O)c2c1` [Example I-101], for which the IC50 lay in the range of 100 to 500 nM.

Turning to `Cc1cc([C@@H](C)Nc2ccccc2C(=O)O)c2oc(N3CCN(C(=O)CCCCCNc4cccc5c4C(=O)N(C4CCC(=O)NC4=O)C5=O)CC3)cc(=O)c2c1` (stereo partly drawn) [Example I-142], the IC50 fell in the range of 500 to 1000 nM.

Take `Cc1cc([C@H](C)Nc2ccccc2C(=O)O)c2oc(N3CCN(C(=O)CCOCCNc4cccc5c4C(=O)N(C4CCC(=O)NC4=O)C5=O)CC3)cc(=O)c2c1` (stereo partly drawn) [Example I-148]: the IC50 fell in the range of 1000 to 10000 nM.

On to `Cc1ncsc1-c1ccc(CNC(=O)[C@@H]2C[C@@H](O)CN2C(=O)[C@@H](NC(=O)CCCCCCCCCNC(=O)c2cc(NC(=O)c3nsc4ccccc34)c3n2CC(=O)N[C@@H]3c2cc(F)ccc2Cl)C(C)(C)C)cc1` [Example I-107], for which the IC50 was < 100 nM.

For the compound `O=C1CCC(N2Cc3cc(C(=O)NCCCCCCCCNC(=O)c4cc(NC(=O)c5cccc(C(F)(F)F)c5)c5c(c4)C(=O)N[C@H]5c4cc(F)ccc4Cl)ccc3C2=O)C(=O)N1` (stereo partly drawn) [Example I-158], the IC50 is < 100 nM.

In turn, `Cc1cc([C@@H](C)Nc2ccccc2C(=O)O)c2oc(N3CCN(C(=O)CCCNc4ccc5c(c4)C(=O)N(C4CCC(=O)NC4=O)C5=O)CC3)cc(=O)c2c1` (stereo partly drawn) [Example I-146] came in with an IC50 of 1000 to 10000 nM.

`O=C1CCC(N2Cc3cc(C(=O)NCCCCCCCNC(=O)c4cc(NC(=O)c5cc(F)cc(C(F)(F)F)c5)c5c(c4)C(=O)N[C@@H]5c4cc(F)ccc4Cl)ccc3C2=O)C(=O)N1` (stereo partly drawn) [Example I-80] yielded an IC50 of 100 to 500 nM.

`O=C1CCC(N2Cc3cc(C(=O)NCCCCCCCCCCNC(=O)c4cc(NC(=O)c5cccc(C(F)(F)F)c5)c5c(c4)C(=O)N[C@@H]5c4cc(F)ccc4Cl)ccc3C2=O)C(=O)N1` (stereo partly drawn) [Example I-154] registered an IC50 of 1000 to 10000 nM.

For the compound `O=C1CCC(N2Cc3cc(C#CCNC(=O)c4cc(NC(=O)c5cc(F)cc(C(F)(F)F)c5)c5c(c4)C(=O)N[C@@H]5c4cc(F)ccc4Cl)ccc3C2=O)C(=O)N1` (stereo partly drawn) [Example I-102], the IC50 was < 100 nM.

`Cc1ccccc1Nc1ncc(C(=O)NCCCCCCCC(=O)N[C@H](C(=O)N2C[C@H](O)C[C@H]2C(=O)NCc2ccc(-c3scnc3C)cc2)C(C)(C)C)cc1NC(=O)c1csc2ccccc12` [Example I-18]: the IC50 was in the range of 100 to 500 nM.

On to `NC(=O)CCCCCCCCCNC(=O)c1cc(NC(=O)c2nsc3ccccc23)c2n1CC(=O)N[C@H]2c1cc(F)ccc1Cl` [Example I-104], for which the IC50 is < 100 nM.

For the compound `Cc1ccccc1Nc1ncc(C(=O)NCCCC[C@H](N)C(=O)N[C@H](C(=O)N2C[C@H](O)C[C@H]2C(=O)NCc2ccc(-c3scnc3C)cc2)C(C)(C)C)cc1NC(=O)c1csc2ccccc12` [Example I-74], the IC50 lay in the range of 1000 to 10000 nM.

For the compound `Cc1ccccc1Nc1ncc(C(=O)NCCCCCCNc2cccc3c2C(=O)N(C2CCC(=O)NC2=O)C3=O)cc1NC(=O)c1csc2ccccc12` (stereo not drawn) [Example I-59], the IC50 lay in the range of 500 to 1000 nM.

For `NC(=O)CCCCCCCCCNC(=O)c1cc(NC(=O)c2cc(F)cc(C(F)(F)F)c2)c2c(c1)C(=O)N[C@@H]2c1cc(F)ccc1Cl` [Example I-83], the half-maximal inhibitory concentration (IC50) was < 100 nM.

Take `Cc1cc([C@@H](C)Nc2ccccc2C(=O)O)c2oc(N3CCN(C(=O)CCOCCOCCNC(=O)c4cnc(Nc5ccccc5C)c(NC(=O)c5csc6ccccc56)c4)CC3)cc(=O)c2c1` [Example I-125]: the IC50 was < 100 nM.

On to `Cc1cc([C@H](C)Nc2ccccc2C(=O)O)c2oc(N3CCN(C(=O)CCNc4ccc5c(c4)C(=O)N(C4CCC(=O)NC4=O)C5=O)CC3)cc(=O)c2c1` (stereo partly drawn) [Example I-130], for which the IC50 was 1000 to 10000 nM.

With `O=C1CCC(N2C(=O)c3ccc(NCCCCCNC(=O)c4cc(NC(=O)c5cc(F)cc(C(F)(F)F)c5)c5c(c4)C(=O)N[C@H]5c4cc(F)ccc4Cl)cc3C2=O)C(=O)N1` (stereo partly drawn) [Example I-85], the half-inhibitory concentration (IC50) is < 100 nM.

With `Cc1cc([C@H](C)Nc2ccccc2C(=O)O)c2oc(N3CCN(C(=O)CCOCCNc4ccc5c(c4)C(=O)N(C4CCC(=O)NC4=O)C5=O)CC3)cc(=O)c2c1` (stereo partly drawn) [Example I-138], the IC50 was in the range of 1000 to 10000 nM.

`Cc1ncsc1-c1ccc(CNC(=O)[C@@H]2C[C@@H](O)CN2C(=O)[C@@H](NC(=O)CCCCCCCCCNC(=O)c2cc(NC(=O)c3cc(F)cc(C(F)(F)F)c3)c3c(c2)C(=O)N[C@H]3c2cc(F)ccc2Cl)C(C)(C)C)cc1` [Example I-71] displayed an IC50 of 500 to 1000 nM.

In the case of `O=C(CCCCCCCNC(=O)c1cnc(Nc2cc(F)ccc2Cl)c(NC(=O)c2csc3ccccc23)c1)NCc1ccc2c(c1)CN(C1CCC(=O)NC1=O)C2=O` (stereo not drawn) [Example I-41], the IC50 is 100 to 500 nM.

`Cc1cc([C@H](C)Nc2ccccc2C(=O)O)c2oc(N3CCN(C(=O)CCC(=O)NCc4ccc5c(c4)C(=O)N(C4CCC(=O)NC4=O)C5)CC3)cc(=O)c2c1` (stereo partly drawn) [Example I-127] registered an IC50 of 1000 to 10000 nM.

The values are drawn from patent publication US20260131009A1, “BIFUNCTIONAL PI3K-ALPHA INHIBITORS AND USES THEREOF” (Relay Therapeutics, Inc., priority 2021, published 2026).
